Counter-ions that a name gives are not always drawn.
Assays:
[1] = system: intradermal capsaicin model; assay: Phase I crossover study, intradermal capsaicin model: pharmacodynamics; assay type: in vivo, human
From the text: Participants. The volunteers were males aged 18 to 55 years with a body mass index (BMI) of 18 to 30 kg/m2. They were healthy as determined by a responsible physician, based on a medical evaluation including medical history, physical examination, concomitant medication, vital signs, 12-lead ECG, and clinical laboratory evaluations. The participants must have been in good general health with a skin type compatible with the measures and without significant skin allergies, pigmentary disorders or any active dermatological conditions. […] The participants provided written informed consent, which included compliance with the requirements and restrictions listed in the consent form, including the use of a condom during the trial and for 3 months after their final dose of trial medication, if their partner was a woman of childbearing potential.
Clinical and laboratory data. Prior to and 15, 30, 60, 90 and 120 minutes after administration of capsaicin, measurements of pain, hyperalgesia, allodynia and AF were performed. At 2 hours post-capsaicin injection, subjects completed a quantitative sensory testing (QST) battery at two sites on the volar surface of each forearm. One site was the most recent capsaicin injection site, and the other was at an equivalent point on the opposite forearm. […] There was a minimum washout period of 5 days between treatment periods.
Reconstitution was performed by a Pharmacist at the clinical site prior to dosing.
(§1) In order to maintain the blind, a double dummy approach was used.
Subjects were randomised to receive a single administration of a treatment combination during each treatment period. All subjects received each treatment combination once only.
Evaluation methods: Pharmacodynamics was assessed through pain measurements (response to ID injection of capsaicin, measurement of pain using a visual analogue scale, area and pain score of hyperalgesia, area and pain score of allodynia, and AF) and the ID capsaicin model. Subjects also completed a QST battery at two sites on the volar surface of either forearm. The QST battery included the following tests: thermal detection and pain thresholds, mechanical detection and pain thresholds, stimulus/response functions, wind-up ratio and pressure pain threshold.
For measurement of pain, a visual analogue scale (VAS) was used. The VAS consisted of a 100 mm line, with 0 representing "no pain" and 100 representing "worst pain imaginable". Subjects were asked to mark the VAS using a single vertical stroke at the point they considered to appropriately reflect their level of pain from the injection of capsaicin (not general pain). A new VAS was provided for each time point and subjects were not allowed to see their previous VAS responses. The VAS was scored by measuring from the left-hand end of the scale to the point where the subject had marked the line, and the distance in mm was recorded.
Response to pain was also assessed by a numeric rating scale (NRS). For example, by using an 11-point numeric rating scale ranging from 0 ("no pain") to 10 ("worst possible pain") and asking the subject to rate their pain. A NRS scale of 0 to 100 was also used in some assesments.
The thermal tests were performed using a thermode probe (Medoc). Cold and warm detection thresholds were measured first, then cold pain and heat pain thresholds were determined. The mean threshold temperature of 3 consecutive measurements was calculated. All thresholds were obtained with ramped stimuli (1°C/sec) that were terminated when the subject pressed a button. For thermal detection thresholds the ramp back to baseline was 1°C/sec, while for thermal pain thresholds this ramp was chosen at maximum device capacity resulting in approximately a nominal 5°C/sec.
The mechanical detection threshold was measured with a standardised set of modified von Frey nylons that exerted forces upon bending between 0.25 and 512 mN graded by a factor of 2 (1 to 2 seconds contact time). […]

[2] = Phase I crossover study, intradermal capsaicin model: safety evaluation (TEAEs); assay type: in vivo, human; settings: 300 mg pregabalin
Protocol: as §1
Safety was assessed through AE reporting, 12-lead ECG, vital signs, physical examinations and clinical laboratory evaluations. Pharmacokinetics was assessed by blood sampling.

[3] = target: T1, dopamine (DA) reuptake in synaptosomes (Rattus norvegicus, UniProt P23977); settings: hydrochloride; reported in US 9,133,184 B1; cited from earlier work
T1 construct: in synaptosomes as described in WO 97/16451 (NeuroSearch A/S); from tissue

[4] = target: T2, noradrenaline (NA) reuptake in synaptosomes (Rattus norvegicus, UniProt Q63380); settings: hydrochloride; reported in US 9,133,184 B1; cited from earlier work
T2 construct: in synaptosomes as described in WO 97/16451 (NeuroSearch A/S); from tissue
T2 sequence (Q63380 1-617): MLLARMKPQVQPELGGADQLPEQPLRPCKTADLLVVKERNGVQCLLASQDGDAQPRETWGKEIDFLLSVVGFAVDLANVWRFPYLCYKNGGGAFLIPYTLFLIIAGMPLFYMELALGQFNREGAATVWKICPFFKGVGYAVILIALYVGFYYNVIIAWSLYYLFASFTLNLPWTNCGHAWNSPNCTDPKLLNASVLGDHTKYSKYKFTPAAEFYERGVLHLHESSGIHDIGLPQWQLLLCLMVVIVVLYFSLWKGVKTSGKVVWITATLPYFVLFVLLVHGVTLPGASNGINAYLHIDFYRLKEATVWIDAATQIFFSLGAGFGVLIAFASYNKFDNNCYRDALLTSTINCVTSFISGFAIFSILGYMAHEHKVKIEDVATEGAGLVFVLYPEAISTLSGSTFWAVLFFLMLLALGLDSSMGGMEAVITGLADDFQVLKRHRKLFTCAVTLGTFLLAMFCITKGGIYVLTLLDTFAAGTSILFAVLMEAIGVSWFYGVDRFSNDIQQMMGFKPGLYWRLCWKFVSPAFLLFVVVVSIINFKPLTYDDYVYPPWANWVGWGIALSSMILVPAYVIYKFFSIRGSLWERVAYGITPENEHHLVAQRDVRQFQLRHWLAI

T1 sequence (P23977 whole entry): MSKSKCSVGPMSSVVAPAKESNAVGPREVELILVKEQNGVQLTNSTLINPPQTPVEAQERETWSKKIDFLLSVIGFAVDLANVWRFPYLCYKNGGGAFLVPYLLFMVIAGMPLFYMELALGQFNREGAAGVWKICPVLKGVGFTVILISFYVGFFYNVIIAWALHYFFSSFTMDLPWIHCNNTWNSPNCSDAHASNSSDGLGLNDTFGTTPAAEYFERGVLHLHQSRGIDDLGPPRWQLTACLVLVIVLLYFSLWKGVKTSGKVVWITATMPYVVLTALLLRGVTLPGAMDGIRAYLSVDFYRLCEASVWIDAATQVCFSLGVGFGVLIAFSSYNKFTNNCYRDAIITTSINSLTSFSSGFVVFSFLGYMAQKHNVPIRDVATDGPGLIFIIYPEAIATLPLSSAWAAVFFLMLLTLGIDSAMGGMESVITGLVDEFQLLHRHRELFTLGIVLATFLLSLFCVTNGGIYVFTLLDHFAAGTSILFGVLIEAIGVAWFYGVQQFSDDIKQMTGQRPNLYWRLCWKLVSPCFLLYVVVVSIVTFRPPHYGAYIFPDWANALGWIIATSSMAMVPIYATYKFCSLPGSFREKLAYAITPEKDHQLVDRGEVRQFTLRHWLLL

Row | Compound | adjusted mean pain score of hyperalgesia compared to placebo ([1]; 5 mg and 10 mg IP2015, 300 mg pregabalin, all post-capsaicin injection timepoints) | average decrease in hyperalgesic area across all timepoints compared to placebo ([1]; 300 mg pregabalin) | Pain Score of Brush-evoked Allodynia Using an NRS, Adjusted Mean (MMRM) ([1]; 300 mg pregabalin capsule, overall, all timepoints, N=24, placebo 2.0) | Subjective Rating of Pain, Adjusted Mean (MMRM) ([1]; 300 mg pregabalin capsule, overall, all timepoints, N=24, placebo 17.1) | decrease of subjective rating of pain compared to placebo ([1]; 300 mg pregabalin, 15 min post capsaicin) | decrease of subjective rating of pain compared to placebo ([1]; 300 mg pregabalin, 30 min post capsaicin) | decrease of subjective rating of pain compared to placebo ([1]; 300 mg pregabalin, 60 min post capsaicin) | overall increase in warm detection threshold between test and control areas (QST) ([1]; 300 mg pregabalin, p = 0.063, post-hoc analysis) | incidence of TEAEs (share of subjects) [2] | moderate TEAE dizziness [2] | moderate TEAE mood altered [2] | number of TEAEs reported [2] | subjects reporting TEAEs [2] | IC50 [3] | IC50 [4]
1 | CC(C)C[C@H](CN)CC(=O)O [pregabalin, reference compound] | lower | 7.8 cm^2 | 1.5 | 14.4 mm | 1.5 mm | 3.8 mm | 4.4 mm | close to significance | 79.2% | 1 subject | 1 subject | 28 events | 19 subjects |  | 
2 | COc1cc2ccc(O[C@@H]3C[C@H]4CC[C@@H](C3)N4)cc2oc1=O [compound of formula (I) hydrochloride, exo-7-[(8-azabicyclo[3.2.1]octan-3-yl)oxy]-3-methoxy-chromen-2-one hydrochloride] |  |  |  |  |  |  |  |  |  |  |  |  |  | 0.07 µM | 0.0038 µM

From patent EP4608400B1, “COMPOUND FOR TREATMENT OF PAIN” (Initiator Pharma A/S, priority 2022, dated 2024)
